According to US4048325A, “Low toxicity method of inhibiting sickling of sickle erythrocytes” (The United States of America as represented by the United …, priority 1976, dated 1977):
Read-outs that look alike come from different tables or passages of the source. Each block holds one compound with its values, some of them ahead of it.

Tests used:
[1] = tested on: sickle erythrocytes; conditions: Lubin et al 1975; cited from earlier work
[2] = tested on: ascorbate-TMPD oxidase; experiment: electron transport: ascorbate-TMPD oxidase of mitochondrial inner membranes; type: biochemical; conditions: for effect of treatment on ascorbate-TMPD oxidase, in words: at comparable levels of amidination
From the text: (§1) When compared to bifunctional imidates, monoimidates have major advantages as therapeutic agents for the treatment of sickle cell disease. One important difference between the two classes of reagents is their relative effect on enzyme activity. […] The results as shown, respectively in Table II and FIG. 2. To facilitate a comparison of imidate action, effects were related to extent of amidination as measured by percent amino group decrease rather than the absolute reagent concentration.

[3] = tested on: NADH oxidase; experiment: electron transport: NADH oxidase of mitochondrial inner membranes; type: biochemical; conditions: for effect of treatment on NADH oxidase, in words: at comparable levels of amidination
From the text: as §1

[4] = tested on: inner membrane ATPase (adenosine triphosphatase); experiment: inner membrane ATPase activity; type: biochemical; conditions: at comparable levels of amidination (FIG. 2)
From the text: FIG. 2 is a graph illustating the effect of dimethylsuberimidate (DMS) and ethylacetimidate (EA) on inner membrane ATPase (adenosine triphosphatase) activity. Open symbols represent DMS-treated membranes, and closed symbols represent EA-treated membranes.
as §1
In the experiment designated by the closed circles in FIG. 2, membranes were treated with high concentrations of EA to determine the extent of amidination required for complete inhibition of activity. The concentrations of EA required for complete inhibition of activity are considerably in excess of the amount required to inhibit sickling.

[5] = tested on: succinate oxidase; experiment: electron transport: succinate oxidase of mitochondrial inner membranes; type: biochemical; conditions: for effect of treatment on succinate oxidase, in words: at comparable levels of amidination
From the text: as §1

[6] = tested on: rats; experiment: animal survival after exchange of treated blood; type: in vivo, rat; conditions: 30mM in whole blood
Protocol: In experiments conducted to determine the effect of monoimidates on animal survival, rats were treated with ethylacetimidate at levels of 30mM in whole blood under conditions similar to the in vitro studies described above. This level fo treatment is at least 30 times higher than required for prevention of sickling in vitro. At least three-fourths of the blood was treated and exchanged.

[7] = tested on: sickle erythrocytes; experiment: in vitro sickling of sickle erythrocytes after amidination; type: cell-based, human
Protocol: (§2) Cells were washed with Krebs-Henseleit Buffer (pH 7.4) to remove non-erythrocyte blood elements and resuspended in the same medium to a final hematocrit of 20-40%. Erythrocyte suspensions (4% hematocrit) were incubated in KHB (pH 8.5) containing freshly dissolved EA (1-10 mM). After incubation at room temperature (20°-22°) for 30 min, the cells were washed twice with KH buffer (pH 7.4) and resuspended either in the original plasma (40% hematocrit) for analysis of sickling or in other solutions as described below. To amidinate under anoxia the cells were equilibrated with nitrogen in a tonometer until no oxygen could be detected polarographically. Imidates were added in the dry state to anaerobic cell suspensions. Following treatment, the suspensions were diluted 1:1 with 0.1M Tris-acetate--0.15M NaCl buffer (pH 6.0) to quench amidination, and the cells washed as described above.
The cells were deoxygenated with freshly prepared sodium metabisulfite, fixed with 10% formaldehyde, and examined microscopically. Hypoxic conditions: Cell suspensions were deoxygenated by equilibration with 3% oxygen. Five hundred cells were conted to ascertain the extent of sickling.

[8] = biological target: T1, hemoglobin of normal cells (Homo sapiens, UniProt P68871+P69905); experiment: hemoglobin-oxygen affinity (P50), normal cells; type: cell-based; conditions: 1 mM
T1 construct: endogenous in cells; host or cells: normal erythrocytes from healthy volunteers
Protocol: as §2
(§3) The oxygen affinity of whole blood (P50) was determined in a tonometer as in B. H. Lubin et al, cited above.
(§4) Since oxyhemoglobin and deoxyhemoglobin differ in quaternary structure and since the structural differences may affect the manner in which imidates react with hemoglobin, amidination was carried out in the presence and absence of oxygen and the effect on oxygen affinity was then examined.

[9] = in vivo; conditions: ip, intraperitoneal
From the text: Each compound was made up in KH buffer (280 Mosm) buffered to pH 7.4 with 5N NaOH. The final volume for each injection was 1 cc in rats in 0.5 cc in mice.

[10] = biological target: T2, hemoglobin of sickle cells (Homo sapiens, UniProt P68871+P69905, E7V); experiment: hemoglobin-oxygen affinity (P50), sickle cells; type: cell-based; conditions: 1 mM
T2 construct: endogenous in cells; host or cells: sickle erythrocytes (Children's Hospital, Oakland, CA)
Protocol: as §2, §3, §4

[11] = tested on: erythrocytes; experiment: hemolysis following incubation under the conditions of amidination; type: cell-based, human; conditions: after incubation under the conditions of amidination
Protocol: as §2

[12] = tested on: sickle erythrocytes; experiment: net potassium leak which accompanies sickling; type: cell-based, human

SMILES: COC(=N)CCCCC(=N)OC [DMA, dimethyl adipimidate]
inhibition of sickling in vitro (literature report) [1]: inhibit sickling in vitro

Ascorbate-TMPD oxidase activity (% control) ([2]; 2 mM): 61 % control
Ascorbate-TMPD oxidase activity (% control) ([2]; 10 mM): 28 % control
effect of treatment on ascorbate-TMPD oxidase, in words [2]: markedly inhibited
NADH oxidase activity (% control) ([3]; 2 mM): 58 % control
NADH oxidase activity (% control) ([3]; 10 mM): 10 % control
effect of treatment on NADH oxidase, in words [3]: markedly inhibited
effect of treatment on ATPase activity, in words [4]: markedly inhibited
Succinate oxidase activity (% control) ([5]; 2 mM): 62 % control
Succinate oxidase activity (% control) ([5]; 10 mM): 22 % control
effect of treatment on succinate oxidase, in words [5]: markedly inhibited
SMILES: COC(=N)CCCCCCC(=N)OC [DMS, dimethylsuberimidate, reference compound]

SMILES: CCOC(C)=N [EA, ethyl acetimidate]
Ascorbate-TMPD oxidase activity (% control) ([2]; 4 mM): 73 % control
Ascorbate-TMPD oxidase activity (% control) ([2]; 20 mM): 64 % control
effect of treatment on ascorbate-TMPD oxidase, in words [2]: significantly less sensitive to EA than DMS
deleterious effects after exchange of treated blood ([6]; at least three-fourths of the blood treated and exchanged, three experiments): no deleterious effects
hematocrits after treatment ([6]; due to the loss of blood during the transfusion): slightly reduced
inhibition of sickling ([7]; 2-5 mM imidate, in vitro): nearly complete inhibition
inhibition at 1000 µM ([7]; Homo sapiens, Erythrocyte, 1 mM imidate, in vitro, read-out: prevention of sickling): 70 to 80%
prevention of sickling on renewed deoxygenation of cells amidinated under anoxia ([7]; compared with amidination in the presence of oxygen): sickling was prevented to the same degree
effectiveness under hypoxic and anoxic conditions ([7]; deoxygenation with 3% oxygen or sodium metabisulfite): effective under both hypoxic and anoxic conditions
inhibition of sickling ([7]; low imidate concentrations (1-2mM)): approximately 80%
NADH oxidase activity (% control) ([3]; 4 mM): 78 % control
NADH oxidase activity (% control) ([3]; 20 mM): 56 % control
effect of treatment on NADH oxidase, in words [3]: significantly less sensitive to EA than DMS
effect of treatment on ATPase activity, in words [4]: significantly less inhibitory
P50 ([8]; amidinated deoxygenated): 28.0 mm Hg
P50 ([8]; amidinated oxygenated): 25.0 mm Hg
LD50 ([9]; mouse, mice, read-out: LD50 (Lethal dose for 50% of the animals)): 950 mg/kg
LD50 ([9]; rat, rats): 900 mg/kg
Succinate oxidase activity (% control) ([5]; 4 mM): 61 % control
Succinate oxidase activity (% control) ([5]; 20 mM): 45 % control
effect of treatment on succinate oxidase, in words [5]: significantly less sensitive to EA than DMS
P50 ([10]; amidinated deoxygenated): 35.0 mm Hg
P50 ([10]; amidinated oxygenated): 27.0 mm Hg
hemolysis [11]: Negligible hemolysis

SMILES: COC(C)=N [methylacetimidate, methyl acetimidate]
net potassium leak which accompanies sickling [12]: elimination of the net potassium leak
prevention of in vitro sickling compared with EA [7]: as effective as EA

SMILES: CCCC(=N)OC [methylbutyrimidate, methyl butyrimidate]
prevention of in vitro sickling compared with EA [7]: as effective as EA
